Test systems include CAKI-1; MDA-N; MDA-MB-231; 786-0; ACHN; OVCAR-8; HT-29; EKVX; MDA-MB-435; PC-3; HOP-62; SNB-75; UACC-62; NCI-H460; UO-31; HCT-116; HL-60; CCRF-CEM; RPMI-8226; TK-10.
Holding throughout (assay): NCI-60 cell line screen, 48 h

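Exposure lasted 48 hours, with cells grown in 96-well plates and compounds tested at five concentrations. The concentration for 50% growth inhibition is given as GI50.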 Activity calls are given as the source filed them. Rule as the data show it: active = GI50 up to about 1.1 µM and inactive = higher.

Turning to `O=[N+]([O-])c1ccc2c(c1)Nc1c3ccccc3nc3cccc-2c13`, the GI50 is 4.67 µM (inactive) in the assay on CAKI-1; 3.62 µM (inactive) in the assay on MDA-N; 2.41 µM (inactive) with MDA-MB-231; 1.02 µM (active) in the assay with 786-0; 18.1 µM (inactive) with ACHN; 1.17 µM (inactive) in the assay with OVCAR-8. Besides, the GI50 was 3.1 µM (inactive) with HT-29; 11.6 µM (inactive) with EKVX; 4.23 µM (inactive) in the assay on MDA-MB-435; 2.35 µM (inactive) with PC-3; 2.07 µM (inactive) in the assay on HOP-62; 3.61 µM (inactive) in the assay on SNB-75. Further, the GI50 in the assay with UACC-62 is 4.16 µM (inactive); in the assay with NCI-H460 it was 0.789 µM (active); in the assay on UO-31, 5.65 µM (inactive); in the assay on HCT-116, 5.38 µM (inactive); in the assay on HL-60, 1.32 µM (inactive); in the assay with CCRF-CEM, 1.84 µM (inactive). The GI50 in the assay with RPMI-8226 was 4.49 µM (inactive); with TK-10, 5.38 µM (inactive).
For the compound `c1ccc(CN2CCc3[nH]c4ccccc4c3C2)cc1`, the GI50 was 36.5 µM (inactive) in the assay on CAKI-1; 22.1 µM (inactive) with MDA-N; 26.7 µM (inactive) with MDA-MB-231; 22 µM (inactive) in the assay with 786-0; 33.9 µM (inactive) with ACHN; 46.1 µM (inactive) in the assay with OVCAR-8. In addition, the GI50 in the assay on HT-29 is 17.3 µM (inactive); in the assay on EKVX it was 46.5 µM (inactive); in the assay with MDA-MB-435, 22.9 µM (inactive); in the assay on PC-3, 25.4 µM (inactive); with HOP-62, 41 µM (inactive); in the assay with SNB-75, 51.6 µM (inactive). Further, the GI50 in the assay on UACC-62 was 26.1 µM (inactive); with NCI-H460, 16.7 µM (inactive); with UO-31 it was 31.8 µM (inactive); in the assay on HCT-116 it was 19.9 µM (inactive); with HL-60, 17.6 µM (inactive); with CCRF-CEM, 24.3 µM (inactive). The GI50 in the assay on RPMI-8226 was 23.8 µM (inactive); in the assay with TK-10, 23.9 µM (inactive).
In the case of `C[C@]12CC[C@H]3[C@@H](CC=C4C[C@@H](O)CC[C@@]43C)[C@@H]1C/C(=C/c1ccccc1)[C@@H]2O`, the GI50 with CAKI-1 was 30.3 µM (inactive); in the assay on MDA-N, 20.1 µM (inactive); in the assay on MDA-MB-231, 43.1 µM (inactive); with 786-0, 22.1 µM (inactive); in the assay on ACHN, 16.4 µM (inactive); in the assay on OVCAR-8, 20.9 µM (inactive). Also, the GI50 is 28.3 µM (inactive) with HT-29; 11.8 µM (inactive) in the assay with EKVX; > 46 µM (inactive) in the assay on MDA-MB-435; 18.9 µM (inactive) in the assay on PC-3; 19.7 µM (inactive) with HOP-62; > 41.9 µM (inactive) in the assay with SNB-75. Also, the GI50 was 17.8 µM (inactive) in the assay on UACC-62; 20.1 µM (inactive) in the assay with NCI-H460; 18.1 µM (inactive) with UO-31; 8.53 µM (inactive) in the assay with HCT-116; > 43 µM (inactive) with HL-60; 14.6 µM (inactive) in the assay with CCRF-CEM. In addition, the GI50 in the assay with RPMI-8226 is > 32.1 µM (inactive); in the assay with TK-10 it was 27.8 µM (inactive).
Turning to `COc1ccc(/C=C\c2cc(OC)c(OC)c(OC)c2)cc1OC`, the GI50 was 0.156 µM (active) in the assay on CAKI-1; 0.0165 µM (active) in the assay with MDA-N; 0.472 µM (active) with MDA-MB-231; 0.198 µM (active) with 786-0; 0.348 µM (active) in the assay with ACHN; 0.153 µM (active) in the assay with OVCAR-8. For the same compound, the GI50 is 0.124 µM (active) in the assay with HT-29; 0.188 µM (active) in the assay on EKVX; 0.0184 µM (active) with MDA-MB-435; 0.112 µM (active) with PC-3; 0.128 µM (active) with HOP-62; 0.098 µM (active) in the assay on SNB-75. The GI50 was 0.197 µM (active) in the assay with UACC-62; 0.142 µM (active) with NCI-H460; 2.21 µM (inactive) with UO-31; 0.135 µM (active) in the assay with HCT-116; 0.0912 µM (active) in the assay with HL-60; 0.13 µM (active) in the assay on CCRF-CEM. The GI50 with RPMI-8226 is 0.162 µM (active); in the assay on TK-10 it was 0.186 µM (active).
Regarding `COc1cc2cc[n+](C)c(Cc3ccc(Oc4cc(Cc5c6cc(OC)c(OC)cc6cc[n+]5C)ccc4OC)cc3)c2cc1OC`, the GI50 in the assay with CAKI-1, with MDA-N, in the assay on MDA-MB-231, in the assay on 786-0, in the assay with ACHN and with OVCAR-8 was > 100 µM (inactive) each time. In addition, the GI50 in the assay with HT-29 was > 100 µM (inactive); with EKVX, > 100 µM (inactive); in the assay on MDA-MB-435, > 100 µM (inactive); in the assay with PC-3, 91.4 µM (inactive); in the assay on HOP-62 it was > 100 µM (inactive); in the assay with SNB-75, > 100 µM (inactive). Besides, the GI50 in the assay on UACC-62 was > 100 µM (inactive); in the assay with NCI-H460 it was > 100 µM (inactive); in the assay with UO-31, > 100 µM (inactive); in the assay on HCT-116, > 100 µM (inactive); in the assay with HL-60, 45.2 µM (inactive); with CCRF-CEM, > 100 µM (inactive). For the same compound, the results for the GI50 in the assay with RPMI-8226 and with TK-10 were > 100 µM (inactive) and 40.3 µM (inactive), respectively.
As to `N#Cc1c(SCc2ccccc2)nc(-c2ccccc2)[nH]c1=S`, the GI50 was 33.3 µM (inactive) in the assay with CAKI-1; 22.6 µM (inactive) with MDA-N; 37.4 µM (inactive) in the assay with MDA-MB-231; 22.3 µM (inactive) in the assay with 786-0; 23 µM (inactive) in the assay with ACHN; 27.6 µM (inactive) in the assay with OVCAR-8. For the same compound, the GI50 with HT-29 was 28.4 µM (inactive); with EKVX, 31.5 µM (inactive); with MDA-MB-435, 24 µM (inactive); with PC-3 it was 18.7 µM (inactive); in the assay with HOP-62, 19.8 µM (inactive); in the assay on SNB-75, 19.1 µM (inactive). The GI50 in the assay with UACC-62 was 21.7 µM (inactive); with NCI-H460 it was 23.2 µM (inactive); in the assay with UO-31 it was 17.8 µM (inactive); with HCT-116 it was 23.7 µM (inactive); in the assay with HL-60, 30.6 µM (inactive); with CCRF-CEM it was 34.3 µM (inactive). Moreover, the GI50 in the assay on RPMI-8226 is 24.7 µM (inactive); in the assay on TK-10, 32.7 µM (inactive).
For the compound `CC(O)c1cc2c(s1)C(=O)c1scc(C(C)O)c1C2=O` (stereo not given), the GI50 in the assay on CAKI-1 is 1.01 µM (active); with MDA-N, 0.186 µM (active); in the assay with MDA-MB-231, 0.316 µM (active); in the assay with 786-0 it was 2.07 µM (inactive); with ACHN it was 0.853 µM (active); in the assay on OVCAR-8 it was 0.286 µM (active). For the same compound, the GI50 with HT-29 was 2.43 µM (inactive); in the assay with EKVX it was 0.991 µM (active); in the assay with MDA-MB-435 it was 0.175 µM (active); in the assay on PC-3 it was 0.388 µM (active); with HOP-62, 0.973 µM (active); with SNB-75 it was 0.29 µM (active). In addition, the GI50 is 0.245 µM (active) in the assay with UACC-62; 0.757 µM (active) in the assay on NCI-H460; 0.337 µM (active) with UO-31; 0.659 µM (active) in the assay with HCT-116; 0.646 µM (active) in the assay on HL-60; 1.18 µM (inactive) with CCRF-CEM. For the same compound, the GI50 is 0.579 µM (active) in the assay on RPMI-8226 and 1.69 µM (inactive) with TK-10.
